Inhibition data for 55 compounds are collected here from ChEMBL document CHEMBL2417420, “Autotaxin inhibition: development and application of computational tools to identify site-selective lead compounds” (Bioorg Med Chem, 2013).

The structures appear in SMILES notation.

The target in this test is Autotaxin (Homo sapiens, UniProt Q13822). Put plainly: Inhibition of C-terminal FLAG-tagged human recombinant autotaxin using synthetic substrate FS-3 at 10 uM measured every 2 mins by FRET assay relative to control.
`COc1cc(C2CC(=O)NC(SCC(=O)Nc3c(C)cc(C)cc3C)=C2C#N)ccc1OCc1ccccc1` (stereo not given): the inhibition turned out to be 30%.

On to `CC(O)C(NC(=O)c1ccc(N2CCN(C(=O)CCC(=O)c3ccccc3)CC2)nc1)C(N)=O` (stereo not given), for which the inhibition was 20%. Take `Nc1c(/N=N/c2ccc(-c3ccc(/N=N/c4ccc(O)cc4)cc3)cc2)c(S(=O)(=O)O)cc2cc(S(=O)(=O)O)c(/N=N/c3ccccc3)c(O)c12`: the inhibition worked out at 0%.

Consider `COc1cc(/C=c2/sc3n(c2=O)NC2(c4ccccc4)N(C)C(=O)N(C)C2(c2ccccc2)N=3)ccc1O` (stereo not given), for which the inhibition is 20%. The result for `COc1cccc(C2CC(=O)NC(SCC(=O)Nc3ccccc3C)=C2C#N)c1OC` (stereo not given) reads 30%. In the case of `COc1cccc(CCNC(=O)c2ccc3c(c2)nc(-c2cc(OC)cc(OC)c2)n3CCc2ccc(OC)c(OC)c2)c1`, the inhibition came to 20%.

Regarding `Cc1ccc(C)c(N2CCN(C3CN(C(=O)NCCc4ccccc4)CC3O)CC2)c1` (stereo not given), the inhibition came to 10%. As to `COc1cccc(/C=C2/S/C(=N/c3ccccc3)N(Cc3ccccc3)C2=O)c1O`, the inhibition was determined as 0%. The figure for `CCc1cc2c(cc3c(=O)n(CCCC(=O)NCc4ccc(OC(C)C)cc4)ncn32)s1` is 20%; for `COc1cc(CCNC(=O)c2ccc3c(c2)nc(-c2cccc(C)c2)n3CCc2ccc(OC)c(OC)c2)cc(OC)c1` it is 30%; for `Cc1cc(C)cc(CC(=O)N2CCN(c3ccc(C(=O)NC(C(N)=O)C(C)O)cn3)CC2)c1` (stereo not given) it is 20%. The figure for `COc1ccc(-c2cc(C(=O)NC(C)(C)C(=O)NCCC3CCCN3C)c3ccccc3n2)cc1` (stereo not given) is 10%; for `COCCNS(=O)(=O)c1ccc2c(c1)NC(=O)C(CO)N2C(=O)CN1CCC(N2CCCCC2)CC1` (stereo not given) it is 20%; for `COc1cc(/C=C2/SC(=S)N(Cc3ccccc3)C2=O)ccc1OC(=O)c1cccs1` it is 0%.

In the case of `O=C(NCC(O)CO)c1ccc2c(c1)nc(CN1CCC(N3CCCC3)CC1)n2CCc1ccccc1` (stereo not given), the inhibition came to 30%.

As to `Cc1cc(C)cc(CC(=O)N2CCCN(c3ccc(C(=O)NC(C(N)=O)C(C)O)cn3)CC2)c1` (stereo not given), the inhibition is 10%. The result for `COc1ccc(-c2cc(C(=O)NCCC(=O)NCc3ccccc3OC)c3ccccc3n2)cc1` reads 20%; that for `COc1cc(C2CC(=O)NC(SCC(N)=O)=C2C#N)ccc1O` (stereo not given), 0%. As for `O=C(N/N=C/c1cc(Br)c(O)c(O)c1Br)/C(=C\c1ccc([N+](=O)[O-])cc1)NC(=O)c1ccccc1`, the inhibition came out at 20%. The result for `CC(O)C(NC(=O)c1ccc(N2CCCN(C(=O)CCC(=O)c3ccccc3)CC2)nc1)C(N)=O` (stereo not given) reads 20%; that for `COc1cc(/C=N/NC(=O)c2ccc(NC(=O)c3ccc(F)cc3)cc2)cc(Cl)c1O`, 10%; that for `CC1CCC(C(C)C)C(OCc2nc3cc(C(=O)NCCOCCO)ccc3n2Cc2ccco2)C1` (stereo not given), 10%. The figure for `COc1ccccc1/C=C1\SC(=O)N(CCC(=O)N2c3ccccc3Sc3ccc(Cl)cc32)C1=O` is 30%.

With `COc1cc([C@@H]2C(C(=O)c3cccs3)=C(O)C(=O)N2CCc2ccccc2)cc(Br)c1O`, the inhibition is 20%. The figure for `Cc1[nH]n(-c2cc(Cl)c(S(=O)(=O)O)cc2Cl)c(=O)c1/N=N/c1cc(Nc2nc(Cl)nc(Nc3cccc(S(=O)(=O)O)c3)n2)ccc1S(=O)(=O)O` is 10%. The result for `COc1cccc(/C=C2/NC(=O)N(c3cccc(Cl)c3)C2=O)c1OCc1cccc(C(=O)O)c1` reads 30%; that for `CCCCCCOc1ccc(/C=N/c2ccc(/N=C/c3ccc(OCCCCCC)cc3)c(Cl)c2)cc1`, 0%; that for `Cc1cc(C)cc(CC(=O)N2CCN(c3ncccc3C(=O)NC(C(N)=O)C(C)O)CC2)c1` (stereo not given), 0%. The result for `CCc1nc2ccc(C(=O)NCCc3c[nH]c4ccccc34)cn2c1N(C)C(=O)C1CCCCC1` reads 0%.

Consider `COc1ccc(/C=N/NC(=O)c2cc(O)c(O)c(O)c2)cc1Cn1nc(C)c(Br)c1C`, for which the inhibition was 10%. In the case of `CCCCCCOc1ccc(C(=O)COC(=O)c2ccccc2-c2ccccc2C(=O)COC(=O)c2ccc(OCCCCCC)cc2)cc1`, the inhibition turned out to be 0%. For the compound `CCCCCOc1ccc(/C=N/c2ccc(/N=C/c3ccc(OCCCCC)cc3)c(Cl)c2)cc1`, the inhibition stood at 0%. The figure for `CC(C)(C)c1cc(/C=C/C(=O)Nc2ccc(CNC(=O)C(C#N)=C3CCCCC3)cc2)cc(C(C)(C)C)c1O` is 20%; for `CCC(COc1ccc2oc3ccccc3c2c1)NCCC(=O)N(CC(N)=O)Cc1ccc(C)cc1` (stereo not given) it is 10%; for `COc1cc(CCNC(=O)c2ccc3c(c2)nc(-c2cc(OC)c(OC)c(OC)c2)n3CCc2ccc(OC)c(OC)c2)cc(OC)c1` it is 30%. For the compound `O=C(O)c1cc(-c2ccc(/C=C3/S/C(=N\Cc4ccccc4)N(Cc4ccccc4)C3=O)o2)ccc1Cl`, the inhibition amounted to 20%. The figure for `Cc1ccc(C(=O)Nc2ccccc2C(=O)O)cc1S(=O)(=O)Nc1ccc(Br)cc1` is 0%. The figure for `COCCOCC(=O)N1CCN(c2ccc(C(=O)NC(C(N)=O)C(C)O)cn2)CC1C` (stereo not given) is 20%; for `CS(=O)(=O)N1CCC(N(C(=O)COc2ccccc2)C2CCC2)CC1c1cccc(F)c1` (stereo not given) it is 30%; for `CC(C)Cc1ccc(C(C)C(=O)N2CCN(c3ncccc3C(=O)NC(C(N)=O)C(C)O)CC2)cc1` (stereo not given) it is 20%. The result for `COc1ccccc1C1CC(=O)NC(SCC(=O)Nc2ccc(Br)cc2)=C1C#N` (stereo not given) reads 30%.

For the compound `COc1cc(OC)cc(-c2nc3cc(C(=O)NCCc4ccccc4)ccc3n2CCc2ccc(OC)c(OC)c2)c1`, the inhibition is 30%. The figure for `COc1cc(/C=N/NC(=O)c2cc(-c3ccc4ccccc4c3)n[nH]2)ccc1O` is 10%. The result for `COc1cc(C2OCC3(CCCC4(COC(c5ccc(O)c(OC)c5)OC4)C3=O)CO2)ccc1O` (stereo not given) reads 30%; that for `CCOc1cc(/C=C2/NC(=O)N(Cc3ccccc3F)C2=O)cc(Br)c1OCc1ccc2ccccc2c1`, 10%.

In the case of `COc1ccc(CCn2c(-c3cc(OC)c(OC)c(OC)c3)nc3cc(C(=O)NCCc4ccccc4)ccc32)cc1OC`, the inhibition worked out at 30%. The result for `COC(=O)c1ccc(/C=C2/Sc3ccccc3N(Cc3ccccc3F)C2=O)cc1` reads 20%; that for `COc1ccc(C2=NN(C(=O)CSc3nnc(CNC(=O)c4ccco4)n3-c3cc(C)ccc3C)C(c3ccc(OC)cc3)C2)cc1` (stereo not given), 30%.

Turning to `CCOc1cc(/C=C2/NC(=O)N(Cc3cccc(F)c3)C2=O)cc(Cl)c1OCC`, the inhibition was determined as 10%. The result for `COc1cc(/C=C2/SC(=S)N(C3CCCCC3)C2=O)ccc1OCc1ccccc1Cl` reads 0%. With `O=C(O)[C@@H](Cc1ccccc1)N1C(=O)/C(=C/c2cccc(Oc3ccc(Cl)cc3)c2)SC1=S`, the inhibition came to 10%. The result for `COc1ccc(-c2cc(C(F)(F)F)n3nc(C(=O)Nc4cc(Sc5ccc(Br)cc5)cc([N+](=O)[O-])c4)c(Cl)c3n2)cc1OC` reads 10%; that for `CCn1c2ccccc2c2cc(/C=C3\SC(=S)N([C@H](Cc4ccc(O)cc4)C(=O)O)C3=O)ccc21`, 0%. For the compound `COc1ccc(-c2cc(C(=O)NCC(C)C(=O)NCCNc3ccccc3)c3ccccc3n2)cc1` (stereo not given), the inhibition was determined as 10%.

As to `CCCCS(=O)(=O)N1CCn2nc(C3CCC(CNS(=O)(=O)c4ccccc4C)CC3)cc21` (stereo not given), the inhibition stood at 30%.
